Columns and labels:
[1] = test system: Mononuclear cells of peripheral human blood (PBMC); assay: Test on the proliferation of mononuclear cells; type: cell-based; set-up: key: expressing with +, ++ and +++ the substances acting as stimulants (from the least to the most effective); expressing with +, ++ and +++ the substances acting as stimulants (from the least to the most effective); expressing with +, ++ and +++ the substances acting as stimulants (from the least to the most effective); with -, -- and --- the substances inhibiting normal cell growth; with -, -- and --- the substances inhibiting normal cell growth; with -, -- and --- the substances inhibiting normal cell growth; The inactive compounds were expressed with =; separating with / the effects of the higher doses from those of the lower doses; conditions: Table 2, tritium thymidine; for Effect on cell proliferation, ACTIVATOR USED Interl. 2: PBMC activated with Interleukin 2, 6 days
Protocol: Mononuclear cells of peripheral human blood (PBMC), provided by healthy volunteers, were purified according to techniques normally used in haematology laboratories, and were finally suspended, at a concentration of 1.000.000/ml in the bed RPMI 1640 (company Flow Laboratories), enriched with 10% of heat inactivated human serum, 2 mM of glutamine and 40 mcg/ml of Gentalyn (from Shering Co.).
The cells were cultivated (100.000/pit) in triplicate on plates of 96 flat-bottomed pits, for a varying number of days according to the activating substances used (6 days for Interleukin 2 and PPD, 3 days for PHA and ConA), in 200 microliters of the suspension bed, in an incubator at 37° C. with 5% CO2. During the last 17 hours of culture the cells were marked with 0,5 microCuries of tritium thymidine (TdR). At the end of the incubation period, the radioactivity present in the cells was gathered on fiberglass filters. Embedded TdR was measured in a beta-radiation counter.
The results are expressed as arithmetic averages of the counts.
On the cells cultivated in this manner the effect of the substances derived from snake poison was tested.
Using the same methods employed in the test described above, a series of compounds having a peptide structure according to the invention, along with other control compounds, were tested for their imunomodulant activity.

[2] = test system: T lymphocites; assay: Comparison with Interferon gamma: proliferative response of T lymphocites after presentation of B lymphocites treated with PPD; type: cell-based; conditions: 1000 u/ml
Source text: With the aim of more detailed study of the mechanism of action, the effect of the tripeptide PYR-LEU-TRP has been compared to that of Interferon gamma as regards the stimulation of the proliferative response of T lymphocites after presentation of the B lymphocites treated with PPD.

Compound: CC(C)C[C@H](NP(=O)(O)O[C@@H]1O[C@@H](C)[C@H](O)[C@@H](O)[C@H]1O)C(=O)N[C@@H](Cc1c[nH]c2ccccc12)C(=O)O [Phosphoramidon]
- Effect on cell proliferation, ACTIVATOR USED Interl. 2 [1]: +++
- Effect on cell proliferation, ACTIVATOR USED PPD ([1]; PBMC activated with PPD, 6 days): +++

Compound: Z--PRO--LEU--TRP
- Effect on cell proliferation, ACTIVATOR USED Interl. 2 [1]: +++

Compound: gamma Interferon: Interferon gamma, compared with the tripeptide at 1000 u/ml
- increase of the basal proliferative response [2]: approximately two and a half times

Reference: patent US5143903A, “Method of treatment with tripeptide pharmaceutical compositions as immunomodulators” (priority 1989, dated 1992)
